Experimental data: ChEMBL document CHEMBL4354805, “Discovery of MK-8719, a Potent O-GlcNAcase Inhibitor as a Potential Treatment for Tauopathies” (J Med Chem, 2019); call rule not given here

Legend:
[1] = Fraction unbound in human plasma at 2.5 uM by equilibrium dialysis; type: ADME, cell-free
[2] = Toxicity in rat assessed as change in histomorphology at 1000 mg/kg, po administered for 7 days and measured on day 8; type: organism-based; conditions: in vivo, 168 h
[3] = molecular target: T1, Beta-hexosaminidase subunit beta (Homo sapiens, UniProt P07686); experiment: Inhibition of human beta hexosaminidase assessed as inhibitory constant using 4-methylumbelliferyl N-acetyl-beta-D-glucosaminide dihydrate as substrate measured every 60 sec for 45 mins by fluorescence spectrophotometry
T1 sequence (P07686 whole entry): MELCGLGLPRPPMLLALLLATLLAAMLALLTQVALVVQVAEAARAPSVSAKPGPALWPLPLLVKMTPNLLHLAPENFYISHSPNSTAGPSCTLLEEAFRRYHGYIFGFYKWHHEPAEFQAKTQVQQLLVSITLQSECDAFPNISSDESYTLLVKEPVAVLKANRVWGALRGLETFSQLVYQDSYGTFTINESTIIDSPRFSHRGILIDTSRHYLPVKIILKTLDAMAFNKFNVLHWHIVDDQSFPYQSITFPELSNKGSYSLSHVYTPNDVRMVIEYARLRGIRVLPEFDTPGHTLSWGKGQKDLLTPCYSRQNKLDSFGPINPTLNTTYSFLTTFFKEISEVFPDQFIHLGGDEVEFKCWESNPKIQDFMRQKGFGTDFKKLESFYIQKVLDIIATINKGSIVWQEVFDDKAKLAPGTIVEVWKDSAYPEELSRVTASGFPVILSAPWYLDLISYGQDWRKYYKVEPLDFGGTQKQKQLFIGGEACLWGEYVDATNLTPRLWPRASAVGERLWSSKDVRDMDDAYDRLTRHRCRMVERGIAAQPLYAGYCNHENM

[4] = Oral bioavailability in Wistar Han rat at 10 mg/kg; type: ADME, organism-based; conditions: in vivo
[5] = Oral bioavailability in Beagle dog at 3 mg/kg; type: ADME, organism-based, Canis lupus familiaris; conditions: in vivo
Rattus norvegicus [6] = experiment: Elevation of O-protein in rat brain at 10 mg/kg, po measured after 24 hrs; type: functional
Rattus norvegicus [7] = experiment: Elevation of O-protein in rat brain at 3 mg/kg, po measured after 24 hrs relative to control; type: functional
Protein O-GlcNAcase = molecular target: T2, Protein O-GlcNAcase (Rattus norvegicus, UniProt Q8VIJ5); experiment: Inhibition of OGA in rat PC12 cells assessed as OGlcNAcylated protein level incubated for 24 hrs by ELISA; type: cell-based
T2 sequence (Q8VIJ5 whole entry): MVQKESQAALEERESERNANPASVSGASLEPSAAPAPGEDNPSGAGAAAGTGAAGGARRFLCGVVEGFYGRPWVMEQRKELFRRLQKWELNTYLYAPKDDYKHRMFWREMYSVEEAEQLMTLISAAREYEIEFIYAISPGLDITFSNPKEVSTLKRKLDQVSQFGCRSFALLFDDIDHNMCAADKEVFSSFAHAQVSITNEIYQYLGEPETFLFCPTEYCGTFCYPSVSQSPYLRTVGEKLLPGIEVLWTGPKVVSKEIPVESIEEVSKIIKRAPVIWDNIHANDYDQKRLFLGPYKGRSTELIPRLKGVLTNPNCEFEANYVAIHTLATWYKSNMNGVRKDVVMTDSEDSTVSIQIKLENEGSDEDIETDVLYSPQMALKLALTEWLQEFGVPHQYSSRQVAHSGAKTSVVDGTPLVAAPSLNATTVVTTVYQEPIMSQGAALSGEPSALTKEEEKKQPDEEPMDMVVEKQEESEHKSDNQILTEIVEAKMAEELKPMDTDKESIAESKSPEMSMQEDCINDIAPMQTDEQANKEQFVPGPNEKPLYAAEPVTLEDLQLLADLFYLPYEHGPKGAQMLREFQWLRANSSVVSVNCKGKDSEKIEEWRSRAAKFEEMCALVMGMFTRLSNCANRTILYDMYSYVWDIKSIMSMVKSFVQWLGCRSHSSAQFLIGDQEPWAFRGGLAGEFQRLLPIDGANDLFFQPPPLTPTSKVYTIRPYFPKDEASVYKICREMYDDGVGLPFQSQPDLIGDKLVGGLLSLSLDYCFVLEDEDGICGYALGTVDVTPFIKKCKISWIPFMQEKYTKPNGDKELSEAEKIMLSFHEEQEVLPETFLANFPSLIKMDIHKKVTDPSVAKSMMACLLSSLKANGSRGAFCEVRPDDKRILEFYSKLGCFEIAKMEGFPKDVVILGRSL

[8] = Stability in monkey hepatocytes assessed as parent compound remaining at 10 uM incubated for 120 mins; type: ADME, cell-based, Macaca mulatta, Hepatocyte; conditions: rhesus monkey, read-out: Stability
Rattus norvegicus [9] = experiment: Increase in O-protein AUC in rat brain at 10 mg/kg, po measured upto 24 hrs; type: ADME, organism-based; conditions: in vivo
Canis familiaris = experiment: Hemodynamic activity in telemetered dog assessed as change in EKG parameter at 300 mg/kg, po; type: ADME, organism-based, Canis lupus familiaris; conditions: in vivo
[10] = Toxicity in rat assessed as change in serum chemistry at 1000 mg/kg, po administered for 7 days and measured on day 8; type: organism-based; conditions: in vivo, 168 h
[11] = Fraction unbound in rhesus monkey plasma at 1 uM by equilibrium dialysis; type: ADME, cell-free, Macaca mulatta
[12] = Ratio of drug level in rat blood to plasma; type: ADME, cell-free; conditions: whole blood
[13] = Clearance in Wistar Han rat at 2 mg/kg, iv; type: ADME, organism-based; conditions: in vivo
MDR1 = experiment: Apparent permeability in pig LLC-PK1 cells transfected with MDR1; type: ADME, cell-based, Sus scrofa
Cytochrome P450 1A2 = molecular target: T3, Cytochrome P450 1A2 (Homo sapiens, UniProt P05177); experiment: Induction of CYP1A2 in human hepatocytes upto 20 uM; type: ADME, cell-based
T3 sequence (P05177 whole entry): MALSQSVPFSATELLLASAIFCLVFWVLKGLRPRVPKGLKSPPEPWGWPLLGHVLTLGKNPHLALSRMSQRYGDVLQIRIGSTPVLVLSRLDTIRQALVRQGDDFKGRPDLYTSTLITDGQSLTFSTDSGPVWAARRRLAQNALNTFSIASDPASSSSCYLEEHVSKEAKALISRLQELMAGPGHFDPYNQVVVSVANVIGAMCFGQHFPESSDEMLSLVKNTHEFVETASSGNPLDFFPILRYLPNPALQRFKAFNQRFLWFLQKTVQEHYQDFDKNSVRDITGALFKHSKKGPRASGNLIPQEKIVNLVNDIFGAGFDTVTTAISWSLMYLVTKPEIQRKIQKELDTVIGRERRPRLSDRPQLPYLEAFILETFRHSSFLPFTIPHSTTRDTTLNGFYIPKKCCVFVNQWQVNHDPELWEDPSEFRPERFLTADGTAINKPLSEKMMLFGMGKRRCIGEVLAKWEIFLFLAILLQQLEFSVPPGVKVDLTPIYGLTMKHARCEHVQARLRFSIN

[14] = Oral bioavailability in rhesus monkey at 3 mg/kg; type: ADME, organism-based, Macaca mulatta; conditions: in vivo
[15] = Ratio of drug uptake in rat brain to plasma at 3 mg/kg, po measured after 8 hrs; type: ADME, organism-based; conditions: read-out: BPR
[16] = Stability in rat hepatocytes assessed as parent compound remaining at 10 uM incubated for 120 mins; type: ADME, cell-based, Hepatocyte; conditions: read-out: Stability
[17] = Drug uptake in rat brain at 3 mg/kg, po measured after 8 hrs; type: ADME, organism-based; conditions: in vivo
[18] = Drug uptake in rat brain at 3 mg/kg, po measured after 24 hrs; type: ADME, organism-based; conditions: in vivo

SMILES: CCNC1=N[C@@H]2[C@@H](O)[C@H](O)[C@@H](C(F)F)O[C@@H]2S1
- fraction unbound at 2.5 µM [1]: 0.99
- Activity [2]: Non-Toxic
- Ki [3]: > 10 µM
- bioavailability [4]: 80%
- bioavailability [5]: 90%
- fold change (FC) (Rattus norvegicus [6]): 2.57
- fold change (FC) (Rattus norvegicus [7]): 2.17
- EC50 (Protein O-GlcNAcase): 52.7 nM
- remaining at 2 h, 10 µM [8]: 58%
- fold change (FC) (Rattus norvegicus [9]): 31.42
- Activity (Canis familiaris): Non-Toxic
- Activity [10]: Non-Toxic
- fraction unbound at 1 µM [11]: > 0.99
- blood plasma ratio [12]: 0.9 to 1.1
- clearance [13]: 36.7 mL/min/kg
- Papp (MDR1): 6.4 ×10⁻⁶ cm/s
- Activity (Cytochrome P450 1A2): Not Active
- bioavailability [14]: 9%
- Kp at 8 h [15]: 1.84
- remaining at 2 h, 10 µM [16]: 96%
- Drug uptake [17]: 0.219 nmol/g
- Drug uptake [18]: 0.088 nmol/g
